Source: patent publication US7829589B2, “Sulfonamide compounds and uses thereof” (Elixir Pharmaceuticals, Inc., priority 2005, dated 2010)

Molecular target: GHS-R (Homo sapiens, UniProt Q92847)
Test: GHS-R antagonist activity (Ki) in a cell based assay
Method: Cell-Based Activity Assays. For example, the ability of the compound to modulate accumulation of a second messenger signaling component downstream of GHS-R can be evaluated. For example, inositol phosphates (IP), as a result of Gq signaling in a mammalian cell, e.g., a Cos-7 cells. Other tissue culture cells, Xenopus oocytes, and primary cells can also be used.
Phosphatidylinositol turnover assay. One day after transfection COS-7 cells are incubated for 24 hours with 5 μCi of [^3H]-myo-inositol in 1 ml medium supplemented with 10% fetal calf serum, 2 mM glutamine and 0.01 mg/ml gentamicin per well. Cells are then washed twice in buffer, 20 mM HEPES, pH 7.4, supplemented with 140 mM NaCl, 5 mM KCl, 1 mM MgSO4, 1 mM CaCl2, 10 mM glucose, 0.05% (w/v) bovine serum; and incubated in 0.5 ml buffer supplemented with 10 mM LiCl at 37° C. for 30 min. For some assays, it is also useful to incubate the cells with adenosine deaminase ADA (200 U/mg, Boehringer Mannheim, Germany) for 30 min in a concentration of 1 U/ml.
After incubation with the compound of interest for 45 min at 37° C., cells are extracted with 10% ice-cold perchloric acid and placed on ice for 30 min. The resulting supernatants are neutralized with KOH in HEPES buffer, and [^3H]-inositol phosphate is purified on Bio-Rad AG 1-X8 anion exchange resin as described. Assays can be run in duplicate, triplicate, etc. […]

Sequence of GHS-R (Q92847 whole entry, species assumed): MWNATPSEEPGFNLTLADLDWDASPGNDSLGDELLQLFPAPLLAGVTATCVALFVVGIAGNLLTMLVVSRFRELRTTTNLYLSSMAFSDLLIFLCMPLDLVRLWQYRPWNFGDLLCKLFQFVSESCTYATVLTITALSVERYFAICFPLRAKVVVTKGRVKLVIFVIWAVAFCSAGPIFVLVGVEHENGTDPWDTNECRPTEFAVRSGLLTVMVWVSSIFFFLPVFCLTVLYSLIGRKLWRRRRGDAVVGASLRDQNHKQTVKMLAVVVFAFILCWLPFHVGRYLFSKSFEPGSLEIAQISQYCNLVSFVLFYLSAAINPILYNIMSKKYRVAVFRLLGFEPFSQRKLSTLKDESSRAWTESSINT

Row | SMILES | Ki
1 | CCN(CC)CCCS(=O)(=O)N[C@H](CCc1ccccc1)c1nc(Cc2ccc(Cl)cc2)n[nH]1 [Compound 24, 3-Diethylamino-propane-1-sulfonic acid {(R)-1-[5-(4-chloro-benzyl)-2H-[1,2,4]triazol-3-yl]-3-phenyl-propyl}-amide] | < 100 nM
2 | CCN(CC)CCCS(=O)(=O)N[C@H](COCc1ccccc1)c1nc(-c2ccccc2)n[nH]1 [Compound 25, 3-Diethylamino-propane-1-sulfonic acid [(S)-2-benzyloxy-1-(5-phenyl-2H-[1,2,4]triazol-3-yl)-ethyl]-amide] | 100 to 500 nM
3 | CCN(CC)CCS(=O)(=O)N[C@H](CCc1ccccc1)c1nc(-c2ccccn2)no1 [Compound 27, 2-Diethylamino-ethanesulfonic acid [(R)-3-phenyl-1-(3-pyridin-2-yl-[1,2,4]oxadiazol-5-yl)-propyl]-amide] | 100 to 500 nM
4 | CCN(CC)CCS(=O)(=O)N[C@H](CCc1ccccc1)c1nc(-c2ccccc2)n[nH]1 [Compound 28, 2-Diethylamino-ethanesulfonic acid [(R)-3-phenyl-1-(5-phenyl-2H-[1,2,4]triazol-3-yl)-propyl]-amide] | < 100 nM
5 | CCN(CC)CCCS(=O)(=O)N[C@H](CCc1ccccc1)c1nc(-c2ccccc2F)n[nH]1 [Compound 29, 3-Diethylamino-propane-1-sulfonic acid {(R)-1-[5-(2-fluoro-phenyl)-2H-[1,2,4]triazol-3-yl]-3-phenyl-propyl}-amide] | < 100 nM
6 | CCN(CC)CCCS(=O)(=O)N[C@H](CCc1ccccc1)c1nc(Cc2ccc3c(c2)OCO3)n[nH]1 [Compound 30, 3-Diethylamino-propane-1-sulfonic acid [(R)-1-(5-benzo[1,3]dioxol-5-ylmethyl-2H-[1,2,4]triazol-3-yl)-3-phenyl-propyl]-amide] | < 100 nM
7 | CCN(CC)CCCS(=O)(=O)N[C@H](CCc1ccccc1)c1nc(-c2cccnc2Cl)no1 [Compound 31, 3-Diethylamino-propane-1-sulfonic acid {(R)-1-[3-(2-chloro-pyridin-3-yl)-[1,2,4]oxadiazol-5-yl]-3-phenyl-propyl}-amide] | < 100 nM
8 | CCN(CC)CCCS(=O)(=O)N[C@H](CCc1ccccc1)c1nc(Cc2ccc(OC)c(OC)c2)n[nH]1 [Compound 32, 3-Diethylamino-propane-1-sulfonic acid {(R)-1-[5-(3,4-dimethoxy-benzyl)-2H-[1,2,4]triazol-3-yl]-3-phenyl-propyl}-amide] | < 100 nM
9 | CCN(CC)CCCS(=O)(=O)N[C@H](COCc1ccccc1)c1nc(-c2ccccc2C)no1 [Compound 33, 3-Diethylamino-propane-1-sulfonic acid [(R)-2-benzyloxy-1-(3-o-tolyl-[1,2,4]oxadiazol-5-yl)-ethyl]-amide] | ≥ 1000 nM
10 | CCN(CC)CCCS(=O)(=O)N[C@H](COCc1ccccc1)c1nc(-c2ncccc2C)no1 [Compound 34, 3-Diethylamino-propane-1-sulfonic acid {(R)-2-benzyloxy-1-[3-(3-methyl-pyridin-2-yl)-[1,2,4]oxadiazol-5-yl]-ethyl}-amide] | 500 to 1000 nM
11 | CCN(CC)C1CCC(S(=O)(=O)N[C@H](CCc2ccccc2)c2nnc(-c3ccc(F)cc3)[nH]2)CC1 (stereo partly drawn) [Compound 35, 4-Diethylamino-cyclohexanesulfonic acid {(R)-1-[5-(4-fluoro-phenyl)-4H-[1,2,4]triazol-3-yl]-3-phenyl-propyl}-amide] | 100 to 500 nM
12 | CCN(CC)CCS(=O)(=O)N[C@H](CCc1ccccc1)c1nc(-c2c(C)cccc2C)no1 [Compound 36, 2-Diethylamino-ethanesulfonic acid {(R)-1-[3-(2,6-dimethyl-phenyl)-[1,2,4]oxadiazol-5-yl]-3-phenyl-propyl}-amide] | ≥ 1000 nM
13 | CCN(CC)CCCS(=O)(=O)N[C@H](CCc1ccccc1)c1nc(-c2c(OC)cccc2OC)no1 [Compound 37, 3-Diethylamino-propane-1-sulfonic acid {(R)-1-[3-(2,6-dimethoxy-phenyl)-[1,2,4]oxadiazol-5-yl]-3-phenyl-propyl}-amide] | 500 to 1000 nM
